Assay results: patent US9534059B2, “TIKI inhibitors” (Children's Medical Center Corporation, priority 2012, dated 2017)

How the values were obtained:
Assay type in all cases: in vivo
Tiki1 [1] = target: T1, Tiki1 (Xenopus tropicalis, UniProt F6PTN1); experiment: S01234-luciferase Wnt-responsive reporter assay in embryos with Tiki1MO knockdown; details: 20 ng MO in Xwnt8-producing or Xwnt8-responding cells
T1 construct: Thus the endogenous Tiki1 in the Organizer acts in both Wnt-producing and Wnt-responding cells; endogenous in cells; host or cells: Xenopus embryos (dorsal blastomeres / organizer)
T1 sequence (F6PTN1 24-480): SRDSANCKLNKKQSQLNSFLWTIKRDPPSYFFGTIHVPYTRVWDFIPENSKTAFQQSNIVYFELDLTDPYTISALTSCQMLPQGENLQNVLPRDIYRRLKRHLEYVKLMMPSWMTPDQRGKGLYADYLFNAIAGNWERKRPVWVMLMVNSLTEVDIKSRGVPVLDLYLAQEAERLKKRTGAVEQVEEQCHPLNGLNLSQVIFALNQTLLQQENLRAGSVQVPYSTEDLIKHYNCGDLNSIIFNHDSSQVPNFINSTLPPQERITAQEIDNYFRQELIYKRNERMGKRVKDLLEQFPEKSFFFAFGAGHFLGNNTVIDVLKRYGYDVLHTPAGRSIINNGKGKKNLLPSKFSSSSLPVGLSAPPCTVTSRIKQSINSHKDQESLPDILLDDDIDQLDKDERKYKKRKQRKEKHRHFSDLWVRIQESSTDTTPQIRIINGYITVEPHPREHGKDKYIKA
Method: (C) The endogenous Tiki1 acts in Wnt-producing cells. Tiki1MO or control MO (20 ng) was co-injected with CS2+Xwnt8 DNA (40 pg) into a single dorsal blastomere at the 8-cell stage, while 501234-Luciferase or S0-luciferase (100 pg) plus TK-Renilla (1.25 pg) reporter DNAs were injected into a neighboring dorsal blastomere.
(D) The endogenous Tiki1 acts in Wnt-responding cells. S01234-luciferase or S0-luciferease and TK-Renilla reporter DNAs were co-injected with Tiki1MO or control MO into a single dorsal blastomere, while CS2+Xwnt8 was injected into a neighboring dorsal blastomere. Luciferase readings were normalized to Renilla.
The same question was addressed complementarily via Tiki1MO knockdown in dorsal blastomeres whose progenies expresses Tiki1 endogenously. At the 8-cell stage, an Xwnt8 expression plasmid (which transcribes Xwnt8 after mid-blastula transition) plus the Tiki1MO (or control MO) were co-injected into a single blastomere (i.e., to knock down Tiki1 in Xwnt8-producing cells), and the S01234-luciferase plasmid was injected into the neighboring blastomere. Alternatively the Xwnt8 plasmid was injected into a single blastomere, and the 501234-luciferase reporter plus Tiki1MO or control MO was co-injected into the neighboring blastomere (i.e., to knock down Tiki1 in Xwnt8-responding cells).

Tiki1 [2] = target: T1, Tiki1; experiment: Time course of Goosecoid expression in MO-injected embryos, whole mount in situ hybridization (FIG. 3G)
Method: (G) Tiki1MO reduced SO-specific Goosecoid expression at stage 11 but not prior to stage 10.5. Time course of Gsc expression was examined between stage 8.5 and 11. 20 ng of Tiki1MO or control MO was injected into two dorsal blastomeres at the 8-cell stage. After Injection embryos were cultured at 22° C. till indicated stages, and were subjected to whole mount in situ hybridization (vegetal view with dorsal up).
(§1) Procedures for embryo manipulation, reverse transcription PCR and in situ hybridization were performed as previously described (Tamai et al., 2000). The arrayed Xenopus tropicalis full length cDNAs (Voigt et al., 2005) were used for the screening as performed previously (Kato et al., 2002). cDNA pools (in the CS107 vector) that contain 96 independent clones were transcribed in vitro using SP6 polymerase, and the resulting mRNA pools were injected into the dorsal side of the embryo at 4-cell stage at the dose of 10 ng RNA/embryo. Injected embryos were scored at stage 30-31 for enlarged or diminished anterior development. The positive pools were divided into smaller pools and the same process was repeated till a single cDNA was identified.
(§2) The following morpholino oligonucleotides were used: Tiki1 MO: 5′-[…]-3′ (SEQ ID NO:33); standard control MO: 5′-[…]-3′ (SEQ ID NO:34) (Gene Tools, LLC). RT-PCR primers for XTiki1: Forward, 5′-[…]-3′(SEQ ID NO:35), Reverse, 5′-[…]-3′(SEQ ID NO:36); human TIKI1: Forward, 5′-[…]-3′(SEQ ID NO:37), Reverse, 5′-[…]-3′(SEQ ID NO:38); human TIKI2: Forward, 5′-[…]-3′(SEQ ID NO:39), Reverse, 5′-[…]-3′(SEQ ID NO:40).
(§3) Further, injection of Tiki1MO in two dorsal blastomeres of 8-cell stage embryos suppressed the expression of head organizer genes including Goosecoid (Gsc), Lim1, Otx2, and Dkk1 in gastrula stage embryos (stages 10.5-11) (FIG. 3D and Table 1). […] HA*Tiki1 mRNA injection rescued the effect of Tiki1MO on all head organizer genes examined (FIG. 3D and Table 1). […] Consistently, Tiki1 inhibited Xwnt8 posterizing effect when both were co-expressed dorsally via injected plasmids, which zygotically express Tiki1 and Xwnt8, respectively, after mid-blastula transition (FIG. 3H).

Tiki1 [3] = target: T1, Tiki1; experiment: Whole mount in situ hybridization of organizer gene expression in MO-injected embryos (FIGS. 3D and 3F)
Method: (D) Tiki1 is required for the head organizer. Mid-gastrula embryos (stage 10.5-11) were examined by whole mount in situ hybridization.
(F) Tiki1MO reduces Goosecoid expression in prechordal plate at stage 13. 20 ng of control MO, Tiki1MO or Tiki1MO plus 50 pg of HA*Tiki1 mRNA were injected into two dorsal blastomeres at the 8-cell stage. Injected embryos were subjected to whole mount in situ hybridization with the Gsc probe at stage 13 (dorsal view with anterior up).
as §1, §2, §3

[4] = gene Chd, stage 10.5-11, 20 ng MO
[5] = gene Dkk1, stage 10.5-11, 20 ng MO
[6] = gene Gsc in prechordal plate, stage 13, 20 ng MO
[7] = gene Gsc, stage 10.5-11, 20 ng MO
[8] = gene Lim1, stage 10.5-11, 20 ng MO
[9] = gene Otx2, stage 10.5-11, 20 ng MO
[10] = gene Xnot, stage 10.5-11, 20 ng MO
[11] = gene Xnr3, stage 10.5-11, 20 ng MO

Tiki1 MO: morpholino antisense oligonucleotide against Tiki1, 5′-CCAAATGATTACCATCATAGCTCAG-3′ (SEQ ID NO:33) (all phosphorodiamidate morpholino (PMO))
XWnt8 response of S01234-luciferase reporter (Tiki1 [1]): enhanced | Whole embryos displaying change in Goosecoid expression: Absent, Percentage (%) (Tiki1 [2]; stage 8.5, 20 ng MO): 0% | Whole embryos displaying change in Goosecoid expression: NC (No Change), Percentage (%) (Tiki1 [2]; stage 8.5, 20 ng MO): 100% | Whole embryos displaying change in Goosecoid expression: Reduced, Percentage (%) (Tiki1 [2]; stage 8.5, 20 ng MO): 0% | Whole embryos displaying change in Goosecoid expression: Absent, Percentage (%) (Tiki1 [2]; stage 9.5, 20 ng MO): 13% | Whole embryos displaying change in Goosecoid expression: NC (No Change), Percentage (%) (Tiki1 [2]; stage 9.5, 20 ng MO): 87% | Whole embryos displaying change in Goosecoid expression: Reduced, Percentage (%) (Tiki1 [2]; stage 9.5, 20 ng MO): 0% | Whole embryos displaying change in Goosecoid expression: Absent, Percentage (%) (Tiki1 [2]; stage 10, 20 ng MO): 15% | Whole embryos displaying change in Goosecoid expression: NC (No Change), Percentage (%) (Tiki1 [2]; stage 10, 20 ng MO): 85% | Whole embryos displaying change in Goosecoid expression: Reduced, Percentage (%) (Tiki1 [2]; stage 10, 20 ng MO): 0% | Whole embryos displaying change in Goosecoid expression: Absent, Percentage (%) (Tiki1 [2]; stage 10.5, 20 ng MO): 5% | Whole embryos displaying change in Goosecoid expression: NC (No Change), Percentage (%) (Tiki1 [2]; stage 10.5, 20 ng MO): 80% | Whole embryos displaying change in Goosecoid expression: Reduced, Percentage (%) (Tiki1 [2]; stage 10.5, 20 ng MO): 15% | Whole embryos displaying change in Goosecoid expression: Absent, Percentage (%) (Tiki1 [2]; stage 11, 20 ng MO): 48% | Whole embryos displaying change in Goosecoid expression: NC (No Change), Percentage (%) (Tiki1 [2]; stage 11, 20 ng MO): 27% | Whole embryos displaying change in Goosecoid expression: Reduced, Percentage (%) (Tiki1 [2]; stage 11, 20 ng MO): 25% | Whole embryos displaying change in gene expression: Chd Absent, Percentage (%) (Tiki1 [3]; [4]): 0% | Whole embryos displaying change in gene expression: Chd NC (No Change), Percentage (%) (Tiki1 [3]; [4]): 64% | Whole embryos displaying change in gene expression: Chd Reduced, Percentage (%) (Tiki1 [3]; [4]): 36% | Whole embryos displaying change in gene expression: Dkk1 Absent, Percentage (%) (Tiki1 [3]; [5]): 25% | Whole embryos displaying change in gene expression: Dkk1 NC (No Change), Percentage (%) (Tiki1 [3]; [5]): 35% | Whole embryos displaying change in gene expression: Dkk1 Reduced, Percentage (%) (Tiki1 [3]; [5]): 40% | Whole embryos displaying change in gene expression: Gsc st.13 Absent, Percentage (%) (Tiki1 [3]; [6]): 35% | Whole embryos displaying change in gene expression: Gsc st.13 NC (No Change), Percentage (%) (Tiki1 [3]; [6]): 33% | Whole embryos displaying change in gene expression: Gsc st.13 Reduced, Percentage (%) (Tiki1 [3]; [6]): 32% | Whole embryos displaying change in gene expression: Gsc Absent, Percentage (%) (Tiki1 [3]; [7]): 0% | Whole embryos displaying change in gene expression: Gsc NC (No Change), Percentage (%) (Tiki1 [3]; [7]): 34% | Whole embryos displaying change in gene expression: Gsc Reduced, Percentage (%) (Tiki1 [3]; [7]): 66% | Whole embryos displaying change in gene expression: Lim1 Absent, Percentage (%) (Tiki1 [3]; [8]): 28% | Whole embryos displaying change in gene expression: Lim1 NC (No Change), Percentage (%) (Tiki1 [3]; [8]): 18% | Whole embryos displaying change in gene expression: Lim1 Reduced, Percentage (%) (Tiki1 [3]; [8]): 54% | Whole embryos displaying change in gene expression: Otx2 Absent, Percentage (%) (Tiki1 [3]; [9]): 7% | Whole embryos displaying change in gene expression: Otx2 NC (No Change), Percentage (%) (Tiki1 [3]; [9]): 33% | Whole embryos displaying change in gene expression: Otx2 Reduced, Percentage (%) (Tiki1 [3]; [9]): 60% | Whole embryos displaying change in gene expression: Xnot Absent, Percentage (%) (Tiki1 [3]; [10]): 0% | Whole embryos displaying change in gene expression: Xnot NC (No Change), Percentage (%) (Tiki1 [3]; [10]): 87% | Whole embryos displaying change in gene expression: Xnot Reduced, Percentage (%) (Tiki1 [3]; [10]): 13% | Whole embryos displaying change in gene expression: Xnr3 Absent, Percentage (%) (Tiki1 [3]; [11]): 0% | Whole embryos displaying change in gene expression: Xnr3 NC (No Change), Percentage (%) (Tiki1 [3]; [11]): 93% | Whole embryos displaying change in gene expression: Xnr3 Reduced, Percentage (%) (Tiki1 [3]; [11]): 7%
